Structures can show the parent of a compound that is named as a salt. Where two headings read alike, the source gives them in different places.
How the values were obtained:
Format in all cases: biochemical
[1] = target: T1, recombinant PRL-1 (Homo sapiens, UniProt Q93096); experiment: In vitro phosphatase assay (DiFMUP hydrolysis), PRL-1; further: test concentration or dose not given here
T1 construct: 6xHis (N, cleaved yes); made in house; host or cells: E. coli One Shot BL21 Star
T1 sequence (Q93096 1-173): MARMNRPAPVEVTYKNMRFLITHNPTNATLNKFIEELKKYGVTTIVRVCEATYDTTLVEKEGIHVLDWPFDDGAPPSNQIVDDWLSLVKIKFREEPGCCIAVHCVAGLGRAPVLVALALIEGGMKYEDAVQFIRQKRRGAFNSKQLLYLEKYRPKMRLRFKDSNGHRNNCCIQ

[2] = target: T2, recombinant PRL-2 (Homo sapiens, UniProt Q12974); experiment: In vitro phosphatase assay (DiFMUP hydrolysis), PRL-2;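 further: PRL-2 activity read as DiFMUP hydrolysis after 20 min at room temperature with drug, enzyme first pre-reduced at 4 °C for 20 min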
T2 construct: 6xHis (N, cleaved yes); made in house; host or cells: E. coli One Shot BL21 Star
T2 sequence (Q12974 1-167): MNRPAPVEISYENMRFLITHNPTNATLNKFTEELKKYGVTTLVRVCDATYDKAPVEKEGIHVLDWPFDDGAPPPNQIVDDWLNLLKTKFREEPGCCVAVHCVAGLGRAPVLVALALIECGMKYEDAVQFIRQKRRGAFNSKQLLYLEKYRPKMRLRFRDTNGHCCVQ

[3] = target: T3, recombinant PRL-3 (Homo sapiens, UniProt O75365); experiment: In vitro phosphatase assay (DiFMUP hydrolysis), PRL-3; further: test concentration or dose not given here
T3 construct: 6xHis (N, cleaved yes); made in house; host or cells: E. coli One Shot BL21 Star
T3 sequence (O75365 whole entry): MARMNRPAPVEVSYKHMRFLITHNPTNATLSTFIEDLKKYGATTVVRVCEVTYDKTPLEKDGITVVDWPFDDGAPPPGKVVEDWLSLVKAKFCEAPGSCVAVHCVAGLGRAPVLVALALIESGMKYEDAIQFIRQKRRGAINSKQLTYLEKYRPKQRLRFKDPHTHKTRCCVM

[4] = FDA-approved drug screen, compared to DMSO

Compound | % Phosphatase Activity (compared to DMSO) PRL-1 [1, 4] [%] | % Phosphatase Activity (compared to DMSO) PRL-2 [2, 4] [%] | % Phosphatase Activity (compared to DMSO) PRL-3 [3, 4] [%] | % Phosphatase Activity (compared to DMSO) PRL-1 [1] [%] | % Phosphatase Activity (compared to DMSO) PRL-2 [2] [%] | % Phosphatase Activity (compared to DMSO) PRL-3 [3] [%]
C#C[C@]1(OC(C)=O)CC[C@H]2[C@@H]3CCC4=C[C@@H](OC(C)=O)CC[C@@H]4[C@H]3CC[C@@]21C [Ethynodiol diacetate] | 93 | 112 | 88 | – | – | –
CC(O)(P(=O)(O)O)P(=O)(O)O [Etidronate] | 102 | 100 | 91 | – | – | –
CCc1cccc2c3c([nH]c12)C(CC)(CC(=O)O)OCC3 (stereo not drawn) [Etodolac] | 96 | 104 | 72 | – | – | –
CCOC(=O)c1cncn1[C@H](C)c1ccccc1 [Etomidate] | 98 | 91 | 79 | – | – | –
C#C[C@]1(O)CC[C@H]2[C@@H]3CCC4=CC(=O)CC[C@@H]4[C@H]3C(=C)C[C@@]21CC [Etonogestrel] | 90 | 85 | 80 | – | – | –
COc1cc([C@@H]2c3cc4c(cc3[C@@H](O[C@@H]3O[C@@H]5CO[C@@H](C)O[C@H]5[C@H](O)[C@H]3O)[C@H]3COC(=O)[C@H]23)OCO4)cc(OC)c1O [Etoposide] | 90 | 98 | 70 | – | – | –
Cc1ccc(-c2ncc(Cl)cc2-c2ccc(S(C)(=O)=O)cc2)cn1 [Etoricoxib] | 93 | 102 | 91 | – | – | –
Cc1cc(C#N)cc(C)c1Oc1nc(Nc2ccc(C#N)cc2)nc(N)c1Br [Etravirine (TMC125)] | 112 | 133 | 94 | – | – | –
Cc1cc(C)c2c(c1)[C@@H](N(Cc1cc(C(F)(F)F)cc(C(F)(F)F)c1)c1nnn(C)n1)CCCN2C[C@H]1CC[C@H](C(=O)O)CC1 [Evacetrapib (LY2484595)] | 84 | 86 | 84 | – | – | –
CO[C@H]1C[C@@H]2CC[C@@H](C)[C@@](O)(O2)C(=O)C(=O)N2CCCC[C@H]2C(=O)O[C@H]([C@H](C)C[C@@H]2CC[C@@H](OCCO)[C@H](OC)C2)CC(=O)[C@H](C)/C=C(\C)[C@@H](O)[C@@H](OC)C(=O)[C@H](C)C[C@H](C)/C=C/C=C/C=C/1C [Everolimus (RAD001)] | 86 | 86 | 76 | – | – | –
C=C1C[C@@H]2[C@H](CC[C@]3(C)C(=O)CC[C@@H]23)[C@@]2(C)C=CC(=O)C=C12 [Exemestane] | 95 | 116 | 87 | – | – | –
O=C1[C@H](CC[C@H](O)c2ccc(F)cc2)[C@@H](c2ccc(O)cc2)N1c1ccc(F)cc1 [Ezetimibe] | 100 | 82 | 80 | – | – | –
Cc1nc(C(=O)NCC(=O)O)c(O)c2ccc(Oc3ccccc3)cc12 [FG-4592] | 136 | 139 | 95 | – | – | –
O=c1[nH]c(=O)n(C2CCCO2)cc1F (stereo not drawn) [FT-207 (NSC 148958)] | 115 | 95 | 73 | – | – | –
CC(=O)OCC(CCn1cnc2cnc(N)nc21)COC(C)=O [Famciclovir] | 107 | 115 | 79 | – | – | –
NC(N)=Nc1nc(CSCCC(N)=NS(N)(=O)=O)cs1 [Famotidine] | – | – | – | 110 | 115 | 86
Cl.O=S(=O)(c1cccc2cnccc12)N1CCCNCC1 [Fasudil (HA-1077) HCl] | 102 | 95 | 82 | – | – | –
Cc1nc(-c2ccc(OCC(C)C)c(C#N)c2)sc1C(=O)O [Febuxostat] | 95 | 85 | 89 | – | – | –
NC(=O)OCC(COC(N)=O)c1ccccc1 [Felbamate] | 103 | 97 | 71 | – | – | –
CCOC(=O)C1=C(C)NC(C)=C(C(=O)OC)C1c1cccc(Cl)c1Cl (stereo not drawn) [Felodipine] | 161 | 227 | 132 | – | – | –
O=C(O)CCC(=O)c1ccc(-c2ccccc2)cc1 [Fenbufen] | 98 | 103 | 90 | – | – | –
CC(C)OC(=O)C(C)(C)Oc1ccc(C(=O)c2ccc(Cl)cc2)cc1 [Fenofibrate] | 88 | 89 | 101 | – | – | –
CC(C)(Oc1ccc(C(=O)c2ccc(Cl)cc2)cc1)C(=O)O [Fenofibric acid] | 104 | 122 | 109 | – | – | –
CS(=O)(=O)O.Oc1ccc(C2CNCCc3c2cc(O)c(O)c3Cl)cc1 (stereo not drawn) [Fenoldopam (mesylate)] | 108 | 102 | 96 | – | – | –
CC(C(=O)[O-])c1cccc(Oc2ccccc2)c1.CC(C(=O)[O-])c1cccc(Oc2ccccc2)c1.[Ca+2] (stereo not drawn) [Fenoprofen Calcium] | 82 | 80 | 95 | – | – | –
O=C1NCC2(CCN(CCc3ccccc3)CC2)O1 [Fenspiride HCl] | 90 | 101 | 104 | – | – | –
Clc1ccc(C(Cn2ccnc2)OCc2ccc(Sc3ccccc3)cc2)c(Cl)c1 (stereo not drawn) [Fenticonazole Nitrate] | 107 | 117 | 110 | – | – | –
CC(C)C(=O)Oc1ccc(CO)cc1[C@H](CCN(C(C)C)C(C)C)c1ccccc1 [Fesoterodine Fumarate] | 89 | 100 | 95 | – | – | –
CC(C)(C(=O)O)c1ccc(C(O)CCCN2CCC(C(O)(c3ccccc3)c3ccccc3)CC2)cc1 (stereo not drawn) [Fexofenadine HCl] | – | – | – | 109 | 92 | 89

Source: article PMC8119466, “A screen of FDA-approved drugs identifies inhibitors of protein tyrosine phosphatase 4A3 (PTP4A3 or PRL-3)” (Scientific Reports, 2021)
